Columns and labels:
[1] = test system: CAG foci in primary DM1 patient myoblasts; experiment: Single-cut screening: CAG foci staining; assay type: cell-based, human; settings: single sgRNA; for % of CAG foci positive nuclei (DNA-PKi): DNA-PKi treated
Outline: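 Primary DM1 patient myoblasts were PFA-fixed and hybridized with […] (1 ng/μL, 15 min at 80° C) in 30% formamide/2×SSC, followed by anti-MBNL1 immunostaining and Hoechst counterstain. CAG RNA foci were quantified by high-content confocal imaging after single-cut SuCas9 sgRNA editing.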

[2] = test system: CUG foci in primary DM1 patient myoblasts; experiment: Single-cut screening: FISH staining of CUG RNA foci; assay type: cell-based, human; settings: single sgRNA, primary DM1 patient myoblasts; for % of CUG foci free nuclei (DNA-PKi): DNA-PKi treated
Outline: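 CD56-purified primary DM1 patient myoblasts nucleofected with SluCas9:sgRNA RNP (30:90 pmol, single-cut), then DMSO or 3 μM DNA-PK inhibitor for 48 h. At 72 h post-nucleofection, cells fixed and stained for CUG foci with Cy3-PNA(CAG)5 probe (1 ng/μL, 80 °C), co-stained for MBNL1 and Hoechst, imaged by high-content confocal microscopy.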

[3] = test system: 3′ UTR of the human DMPK gene; experiment: Single-cut screening: indel editing efficiency by Sanger sequencing and ICE analysis in primary DM1 patient myoblasts; assay type: cell-based; settings: vehicle-treated samples; for Indel efficiency: single SluCas9 sgRNA RNP in primary DM1 patient myoblasts, Sanger sequencing and ICE analysis; for indel efficiency (Sanger sequencing and ICE analysis): single-cut, SluCas9 RNP, 72 hrs post nucleofection, wild-type allele
Outline: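 Indels were estimated by ICE from Sanger chromatograms of PCR amplicons covering the DMPK 3′ UTR wild-type allele, using only vehicle-treated samples; sgRNAs with R2<0.9 are flagged. Samples came from primary DM1 patient myoblasts (2 × 10^5) harvested 72 h after nucleofection with 30 pmol SluCas9 and 90 pmol single sgRNA RNP.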

Substance: TCTTGTGCATGACGCCCTGCTC (guide RNA; chemistry not fully specified) [SluD31]
- % of CAG foci positive nuclei (DNA-PKi) [1]: 3.21%
- % of CAG foci positive nuclei (Vehicle) [1]: 3.06%
- % of CUG foci free nuclei (DNA-PKi) [2]: 23.95%
- % of CUG foci free nuclei (Vehicle) [2]: 14.17%
- Indel efficiency [3]: 63%

Substance: TGCACTGAGACCCCGACATTCC (guide RNA; chemistry not fully specified) [SluD79]
- % of CAG foci positive nuclei (DNA-PKi) [1]: 1.79%
- % of CAG foci positive nuclei (Vehicle) [1]: 0.82%
- % of CUG foci free nuclei (DNA-PKi) [2]: 25.61%
- % of CUG foci free nuclei (Vehicle) [2]: 11.48%
- Indel efficiency [3]: 2%

Substance: TGCGCTGCTCTCGGAGCCCCAG (guide RNA; chemistry not fully specified) [SluD54]
- % of CAG foci positive nuclei (DNA-PKi) [1]: 2.85%
- % of CAG foci positive nuclei (Vehicle) [1]: 2.11%
- % of CUG foci free nuclei (DNA-PKi) [2]: 33.12%
- % of CUG foci free nuclei (Vehicle) [2]: 10.7%
- Indel efficiency [3]: 26%

Substance: TGCTTTTGCCAAACCCGCTTTT (guide RNA; chemistry not fully specified) [SluD39]
- % of CAG foci positive nuclei (DNA-PKi) [1]: 1.68%
- % of CAG foci positive nuclei (Vehicle) [1]: 1.95%
- % of CUG foci free nuclei (DNA-PKi) [2]: 31.63%
- % of CUG foci free nuclei (Vehicle) [2]: 9.15%
- Indel efficiency [3]: 39%

Substance: TGGAAGACTGAGTGCCCGGGGC (guide RNA; chemistry not fully specified) [SluU14]
- % of CAG foci positive nuclei (DNA-PKi) [1]: 1.63%
- % of CAG foci positive nuclei (Vehicle) [1]: 1.02%
- % of CUG foci free nuclei (DNA-PKi) [2]: 58.84%
- % of CUG foci free nuclei (Vehicle) [2]: 29.12%
- Indel efficiency [3]: 52%

Substance: TGGAGGATGGAACACGGACGGC (listed as DNA, chemistry not fully specified) [SluD18]
- % of CAG foci positive nuclei (DNA-PKi) [1]: 1.55%
- % of CAG foci positive nuclei (Vehicle) [1]: 2.71%
- % of CUG foci free nuclei (DNA-PKi) [2]: 31.47%
- % of CUG foci free nuclei (Vehicle) [2]: 15.38%
- Indel efficiency [3]: 75%
- indel efficiency (Sanger sequencing and ICE analysis) [3]: high editing IN4DEL efficiency

Substance: TGGGCGGAGACCCACGCTCGGA (guide RNA; chemistry not fully specified) [SluU25]
- % of CAG foci positive nuclei (DNA-PKi) [1]: 1.29%
- % of CAG foci positive nuclei (Vehicle) [1]: 0.92%
- % of CUG foci free nuclei (DNA-PKi) [2]: 47.96%
- % of CUG foci free nuclei (Vehicle) [2]: 23.15%
- Indel efficiency [3]: 38%

Substance: TGTCTTCGACTCCGGGGCCCCG (listed as DNA, chemistry not fully specified) [SluU06]
- % of CAG foci positive nuclei (DNA-PKi) [1]: 1.1%
- % of CAG foci positive nuclei (Vehicle) [1]: 1.01%
- % of CUG foci free nuclei (DNA-PKi) [2]: 67.15%
- % of CUG foci free nuclei (Vehicle) [2]: 25.49%
- Indel efficiency [3]: 81%
- indel efficiency (Sanger sequencing and ICE analysis) [3]: high editing IN4DEL efficiency

Substance: TGTGAACTGGCAGGCGGTGGGC (guide RNA; chemistry not fully specified) [SluU17]
- % of CAG foci positive nuclei (DNA-PKi) [1]: 1.28%
- % of CAG foci positive nuclei (Vehicle) [1]: 1.5%
- % of CUG foci free nuclei (DNA-PKi) [2]: 67.55%
- % of CUG foci free nuclei (Vehicle) [2]: 21.96%
- Indel efficiency [3]: 32%

Substance: TGTGATCCGGGCCCGCCCCCTA (guide RNA; chemistry not fully specified) [SluU33]
- % of CAG foci positive nuclei (DNA-PKi) [1]: 1.3%
- % of CAG foci positive nuclei (Vehicle) [1]: 1.14%
- % of CUG foci free nuclei (DNA-PKi) [2]: 57.35%
- % of CUG foci free nuclei (Vehicle) [2]: 24.67%
- Indel efficiency [3]: 26%

Substance: TTATTCGCGAGGGTCGGGGGTG (guide RNA; chemistry not fully specified) [SluD89]
- % of CAG foci positive nuclei (DNA-PKi) [1]: 2.54%
- % of CAG foci positive nuclei (Vehicle) [1]: 0.61%
- % of CUG foci free nuclei (DNA-PKi) [2]: 11.37%
- % of CUG foci free nuclei (Vehicle) [2]: 10.23%
- Indel efficiency [3]: 0%

Substance: TTTATTCGCGAGGGTCGGGGGT (guide RNA; chemistry not fully specified) [SluD91]
- % of CAG foci positive nuclei (DNA-PKi) [1]: 4.23%
- % of CAG foci positive nuclei (Vehicle) [1]: 1%
- % of CUG foci free nuclei (DNA-PKi) [2]: 21.28%
- % of CUG foci free nuclei (Vehicle) [2]: 22.42%
- Indel efficiency [3]: 33%

Substance: TTTGCACTTTGCGAACCAACGA (guide RNA; chemistry not fully specified) [SluD29]
- % of CAG foci positive nuclei (DNA-PKi) [1]: 2.38%
- % of CAG foci positive nuclei (Vehicle) [1]: 1.72%
- % of CUG foci free nuclei (DNA-PKi) [2]: 28.37%
- % of CUG foci free nuclei (Vehicle) [2]: 7.97%
- Indel efficiency [3]: 35%

Substance: TTTTATTCGCGAGGGTCGGGGG (guide RNA; chemistry not fully specified) [SluD92]
- % of CAG foci positive nuclei (DNA-PKi) [1]: 3.02%
- % of CAG foci positive nuclei (Vehicle) [1]: 1.4%
- % of CUG foci free nuclei (DNA-PKi) [2]: 24.03%
- % of CUG foci free nuclei (Vehicle) [2]: 24.08%
- Indel efficiency [3]: 30%

Substance: ccccggccGCTAGGGGGCGGGC (guide RNA; as printed in the source, key not given here) [SluU39]
- % of CAG foci positive nuclei (DNA-PKi) [1]: 2.5%
- % of CAG foci positive nuclei (Vehicle) [1]: 0.71%
- % of CUG foci free nuclei (DNA-PKi) [2]: 36.78%
- % of CUG foci free nuclei (Vehicle) [2]: 10.53%
- Indel efficiency [3]: 11%

Substance: cccctccctccccggccGCTAG (guide RNA; as printed in the source, key not given here) [SluU46]
- % of CAG foci positive nuclei (DNA-PKi) [1]: 1.5%
- % of CAG foci positive nuclei (Vehicle) [1]: 0.74%
- % of CUG foci free nuclei (DNA-PKi) [2]: 62.89%
- % of CUG foci free nuclei (Vehicle) [2]: 14.46%
- Indel efficiency [3]: 41%

Substance: cgcggacccggcccctccctcc (CGCGGACCCGGCCCCTCCCTCC; guide RNA; chemistry not fully specified) [SluU53]
- % of CAG foci positive nuclei (DNA-PKi) [1]: 2.9%
- % of CAG foci positive nuclei (Vehicle) [1]: 1.44%
- % of CUG foci free nuclei (DNA-PKi) [2]: 61.52%
- % of CUG foci free nuclei (Vehicle) [2]: 22.52%
- Indel efficiency [3]: 31%

Substance: cgcggccggcgaacggggcTCG (guide RNA; as printed in the source, key not given here) [SluU59]
- % of CAG foci positive nuclei (DNA-PKi) [1]: 1.4%
- % of CAG foci positive nuclei (Vehicle) [1]: 1.35%
- % of CUG foci free nuclei (DNA-PKi) [2]: 72.56%
- % of CUG foci free nuclei (Vehicle) [2]: 23.05%
- Indel efficiency [3]: 92%
- indel efficiency (Sanger sequencing and ICE analysis) [3]: high editing IN4DEL efficiency

Substance: cggcccctccctccccggccGC (guide RNA; as printed in the source, key not given here) [SluU51]
- % of CAG foci positive nuclei (DNA-PKi) [1]: 1.6%
- % of CAG foci positive nuclei (Vehicle) [1]: 0.72%
- % of CUG foci free nuclei (DNA-PKi) [2]: 46.88%
- % of CUG foci free nuclei (Vehicle) [2]: 8.62%
- Indel efficiency [3]: 28%

Substance: cggggagggaggggccgggtcc (CGGGGAGGGAGGGGCCGGGTCC; guide RNA; chemistry not fully specified) [SluU52]
- % of CAG foci positive nuclei (DNA-PKi) [1]: 2.65%
- % of CAG foci positive nuclei (Vehicle) [1]: 0.74%
- % of CUG foci free nuclei (DNA-PKi) [2]: 65.25%
- % of CUG foci free nuclei (Vehicle) [2]: 23.34%
- Indel efficiency [3]: 34%

Substance: ctccctccccggccGCTAGGGG (guide RNA; as printed in the source, key not given here) [SluU45]
- % of CAG foci positive nuclei (DNA-PKi) [1]: 2.36%
- % of CAG foci positive nuclei (Vehicle) [1]: 1.11%
- % of CUG foci free nuclei (DNA-PKi) [2]: 43.15%
- % of CUG foci free nuclei (Vehicle) [2]: 12.63%
- Indel efficiency [3]: 14%

Substance: gagggaggggccgggtccgcgg (GAGGGAGGGGCCGGGTCCGCGG; guide RNA; chemistry not fully specified) [SluU54]
- % of CAG foci positive nuclei (DNA-PKi) [1]: 1.28%
- % of CAG foci positive nuclei (Vehicle) [1]: 1.14%
- % of CUG foci free nuclei (DNA-PKi) [2]: 53.64%
- % of CUG foci free nuclei (Vehicle) [2]: 13.12%
- Indel efficiency [3]: 10%

Substance: gccccgttcgccggccgcggac (guide GCCCCGTTCGCCGGCCGCGGAC; listed as DNA, chemistry not fully specified) [SluU58]
- % of CAG foci positive nuclei (DNA-PKi) [1]: 1.51%
- % of CAG foci positive nuclei (Vehicle) [1]: 1.35%
- % of CUG foci free nuclei (DNA-PKi) [2]: 49.37%
- % of CUG foci free nuclei (Vehicle) [2]: 16.57%
- Indel efficiency [3]: 36%

Substance: gcccctccctccccggccGCTA (guide RNA; as printed in the source, key not given here) [SluU48]
- % of CAG foci positive nuclei (DNA-PKi) [1]: 1.56%
- % of CAG foci positive nuclei (Vehicle) [1]: 1.1%
- % of CUG foci free nuclei (DNA-PKi) [2]: 24.81%
- % of CUG foci free nuclei (Vehicle) [2]: 20.76%
- Indel efficiency [3]: 11%

Substance: gccgggtccgcggccggcgaac (GCCGGGTCCGCGGCCGGCGAAC; guide RNA; chemistry not fully specified) [SluU57]
- % of CAG foci positive nuclei (DNA-PKi) [1]: 1.77%
- % of CAG foci positive nuclei (Vehicle) [1]: 1.54%
- % of CUG foci free nuclei (DNA-PKi) [2]: 52.65%
- % of CUG foci free nuclei (Vehicle) [2]: 18.03%
- Indel efficiency [3]: 17%

Substance: gcggccggcgaacggggcTCGA (guide RNA; as printed in the source, key not given here) [SluU60]
- % of CAG foci positive nuclei (DNA-PKi) [1]: 2.17%
- % of CAG foci positive nuclei (Vehicle) [1]: 1.23%
- % of CUG foci free nuclei (DNA-PKi) [2]: 49.06%
- % of CUG foci free nuclei (Vehicle) [2]: 22.98%
- Indel efficiency [3]: 40%

Substance: ggcccctccctccccggccGCT (guide RNA; as printed in the source, key not given here) [SluU50]
- % of CAG foci positive nuclei (DNA-PKi) [1]: 1.59%
- % of CAG foci positive nuclei (Vehicle) [1]: 0.75%
- % of CUG foci free nuclei (DNA-PKi) [2]: 48.15%
- % of CUG foci free nuclei (Vehicle) [2]: 11.21%
- Indel efficiency [3]: 22%

Source: patent publication US20240173432A1, “Compositions and Methods for Treatment of Myotonic Dystrophy Type 1 with CRISPR/SluCas9” (Vertex Pharmaceuticals Incorporated, priority 2021, published 2024)
